According to ChEMBL document CHEMBL5055676, “Novel methyllycaconitine analogues selective for the α4β2 over α7 nicotinic acetylcholine receptors” (Bioorg Med Chem, 2021):
Activity calls are given as the source filed them. The calls are words filed in the database; no cut-off is given here.

How the values were obtained:
[1] = target: T1, Neuronal acetylcholine receptor; alpha4/beta2 (Homo sapiens, UniProt P17787+P43681); test: Inhibition of human (alpha4)3(beta2)2 nAChR expressed in Xenopus laevis oocytes assessed as inhibition of acetylcholine-induced current response at 10 uM pretreated for 30 secs followed by co-application with acetylcholine measured at holding potential of -60 mV by two-electrode voltage-clamp method; type: cell-based; settings: Oocyte, time 30.0 sec
[2] = target: T1, Neuronal acetylcholine receptor; alpha4/beta2; test: Non-competitive antagonist activity at human (alpha4)3(beta2)2 nAChR expressed in Xenopus laevis oocytes decrease in acetylcholine-induced maximum current with non-significant change in Ach potency at IC50 pretreated for 30 secs followed by co-application with acetylcholine measured at holding potential of -60 mV by two-electrode voltage-clamp method; type: cell-based; settings: Oocyte, time 30.0 sec
[3] = target: T1, Neuronal acetylcholine receptor; alpha4/beta2; test: Inhibition of human (alpha4)2(beta2)3 nAChR expressed in Xenopus laevis oocytes assessed as inhibition of acetylcholine-induced current response at 10 uM pretreated for 30 secs followed by co-application with acetylcholine measured at holding potential of -60 mV by two-electrode voltage-clamp method; type: cell-based; settings: Oocyte, time 30.0 sec
[4] = target: T1, Neuronal acetylcholine receptor; alpha4/beta2; test: Inhibition of human (alpha4)3(beta2)2 nAChR expressed in Xenopus laevis oocytes assessed as inhibition of acetylcholine-induced current response in presence of 100 uM acetylcholine by two-electrode voltage-clamp method; type: cell-based, Oocyte; settings: for logIC50: Oocyte
[5] = target: T1, Neuronal acetylcholine receptor; alpha4/beta2; test: Inhibition of human (alpha4)2(beta2)3 nAChR expressed in Xenopus laevis oocytes assessed as inhibition of acetylcholine-induced current response in presence of 3 uM acetylcholine by two-electrode voltage-clamp method; type: cell-based, Oocyte; settings: for logIC50: Oocyte
[6] = target: Neuronal acetylcholine receptor subunit alpha-7 (Rattus norvegicus, UniProt Q05941); test: Inhibition of rat alpha7 nAChR expressed in Xenopus laevis oocytes assessed as inhibition of acetylcholine-elicited current response measured at holding potential of -60 mV by two-electrode voltage-clamp method; type: cell-based, Oocyte
[7] = target: Neuronal acetylcholine receptor; alpha4/beta2 (Rattus norvegicus, UniProt P09483+P12390); test: Inhibition of rat alpha4beta2 nAChR expressed in Xenopus laevis oocytes assessed as inhibition of acetylcholine-elicited current response measured at holding potential of -60 mV by two-electrode voltage-clamp method; type: cell-based, Oocyte
Neuronal acetylcholine receptor; alpha4/beta2 (Rattus norvegicus, UniProt P09483+P12390), sequence (P09483 whole entry): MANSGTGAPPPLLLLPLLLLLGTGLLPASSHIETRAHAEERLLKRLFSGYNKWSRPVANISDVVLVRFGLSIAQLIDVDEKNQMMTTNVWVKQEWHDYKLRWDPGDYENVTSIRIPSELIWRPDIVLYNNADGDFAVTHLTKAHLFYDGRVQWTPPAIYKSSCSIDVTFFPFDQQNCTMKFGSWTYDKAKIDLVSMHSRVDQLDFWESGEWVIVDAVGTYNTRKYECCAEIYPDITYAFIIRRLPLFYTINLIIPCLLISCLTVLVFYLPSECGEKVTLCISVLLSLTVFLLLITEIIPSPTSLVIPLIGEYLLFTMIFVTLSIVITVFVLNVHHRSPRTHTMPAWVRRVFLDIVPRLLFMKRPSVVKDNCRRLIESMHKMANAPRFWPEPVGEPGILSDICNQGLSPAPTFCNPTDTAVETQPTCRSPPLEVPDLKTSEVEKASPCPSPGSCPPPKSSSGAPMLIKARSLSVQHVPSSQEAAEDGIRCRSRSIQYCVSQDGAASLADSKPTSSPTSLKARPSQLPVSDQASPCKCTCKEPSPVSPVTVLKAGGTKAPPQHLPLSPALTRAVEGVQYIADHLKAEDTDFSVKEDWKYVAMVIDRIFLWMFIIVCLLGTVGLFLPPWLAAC
Neuronal acetylcholine receptor; alpha4/beta2 (Rattus norvegicus, UniProt P09483+P12390), sequence (P12390 whole entry): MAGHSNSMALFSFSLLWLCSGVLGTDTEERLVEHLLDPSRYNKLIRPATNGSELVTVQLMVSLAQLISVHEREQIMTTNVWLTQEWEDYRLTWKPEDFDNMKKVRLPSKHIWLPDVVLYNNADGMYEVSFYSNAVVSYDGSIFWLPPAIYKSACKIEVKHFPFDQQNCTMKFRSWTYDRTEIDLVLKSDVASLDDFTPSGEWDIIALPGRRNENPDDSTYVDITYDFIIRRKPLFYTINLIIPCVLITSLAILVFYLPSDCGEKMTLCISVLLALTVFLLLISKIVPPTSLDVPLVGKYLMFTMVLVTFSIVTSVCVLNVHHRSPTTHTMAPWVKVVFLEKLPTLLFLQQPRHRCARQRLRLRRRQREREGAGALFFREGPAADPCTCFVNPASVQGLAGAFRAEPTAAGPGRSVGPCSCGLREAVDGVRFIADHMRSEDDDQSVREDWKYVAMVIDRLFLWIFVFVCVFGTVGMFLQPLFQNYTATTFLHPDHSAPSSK

T1 sequence (P17787 whole entry): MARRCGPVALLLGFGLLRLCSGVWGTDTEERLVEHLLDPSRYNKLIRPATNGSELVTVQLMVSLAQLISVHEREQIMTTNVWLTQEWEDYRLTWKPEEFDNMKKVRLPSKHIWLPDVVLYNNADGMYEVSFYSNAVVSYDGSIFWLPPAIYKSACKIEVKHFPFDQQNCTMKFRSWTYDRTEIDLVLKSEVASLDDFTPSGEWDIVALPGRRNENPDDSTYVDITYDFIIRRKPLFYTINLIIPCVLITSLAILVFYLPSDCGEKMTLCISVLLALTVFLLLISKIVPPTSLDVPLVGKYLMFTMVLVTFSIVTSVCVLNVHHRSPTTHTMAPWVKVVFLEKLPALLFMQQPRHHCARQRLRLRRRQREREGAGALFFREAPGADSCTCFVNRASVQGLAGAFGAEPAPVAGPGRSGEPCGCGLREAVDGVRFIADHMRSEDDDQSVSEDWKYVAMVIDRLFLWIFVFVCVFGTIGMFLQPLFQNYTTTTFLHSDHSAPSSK
T1 sequence (P43681 whole entry): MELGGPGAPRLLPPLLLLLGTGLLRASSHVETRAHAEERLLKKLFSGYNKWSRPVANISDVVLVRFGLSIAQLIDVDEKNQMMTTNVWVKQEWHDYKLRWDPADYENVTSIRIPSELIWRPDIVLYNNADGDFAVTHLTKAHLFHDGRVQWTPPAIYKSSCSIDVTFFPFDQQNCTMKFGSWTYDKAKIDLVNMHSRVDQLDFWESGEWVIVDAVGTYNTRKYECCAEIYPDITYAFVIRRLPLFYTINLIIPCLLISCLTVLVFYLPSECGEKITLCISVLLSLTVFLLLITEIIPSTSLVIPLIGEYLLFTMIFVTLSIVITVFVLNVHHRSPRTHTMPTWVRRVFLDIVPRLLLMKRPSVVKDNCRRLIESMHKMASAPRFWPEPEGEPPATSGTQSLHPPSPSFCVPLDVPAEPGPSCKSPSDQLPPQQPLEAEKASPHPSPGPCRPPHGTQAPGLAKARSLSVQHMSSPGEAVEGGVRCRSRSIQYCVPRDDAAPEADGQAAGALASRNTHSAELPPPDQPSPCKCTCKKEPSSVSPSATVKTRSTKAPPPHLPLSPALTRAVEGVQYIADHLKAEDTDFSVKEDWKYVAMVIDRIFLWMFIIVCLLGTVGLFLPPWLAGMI
Neuronal acetylcholine receptor subunit alpha-7, sequence (Q05941 whole entry): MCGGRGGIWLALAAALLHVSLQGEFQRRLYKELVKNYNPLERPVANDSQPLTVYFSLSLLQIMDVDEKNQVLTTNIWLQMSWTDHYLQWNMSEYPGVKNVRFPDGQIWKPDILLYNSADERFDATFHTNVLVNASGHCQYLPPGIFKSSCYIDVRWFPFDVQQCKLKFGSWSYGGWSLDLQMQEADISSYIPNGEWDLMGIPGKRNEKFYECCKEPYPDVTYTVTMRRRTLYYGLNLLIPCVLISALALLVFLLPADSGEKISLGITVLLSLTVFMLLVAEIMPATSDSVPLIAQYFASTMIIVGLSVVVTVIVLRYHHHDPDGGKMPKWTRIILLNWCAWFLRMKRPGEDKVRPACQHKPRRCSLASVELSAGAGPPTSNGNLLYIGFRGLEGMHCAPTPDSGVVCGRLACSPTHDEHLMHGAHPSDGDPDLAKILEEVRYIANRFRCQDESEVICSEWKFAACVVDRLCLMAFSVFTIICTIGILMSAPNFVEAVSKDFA

Structure (SMILES) | inhibition [1] | inhibition [3] | other results
C=C1[C@@H]2CCC[C@@]1(COC(=O)c1ccccc1-c1ccc(NC(C)=O)cn1)CN(CC)C2 | 60% | Active | inhibition [2]: Active; IC50 [4]: 4.1 µM; logIC50 [4]: 0.6; IC50 [5]: 29.1 µM; logIC50 [5]: 1.5
C=C1[C@@H]2CCC[C@@]1(COC(=O)c1ccccc1-c1ccncc1)CN(CC)C2 | Active |  | 
C=C1[C@@H]2CCC[C@@]1(COC(=O)c1ccccc1-c1ccccc1)CN(CC)C2 | Active |  | 
CCN1C[C@]2(COC(=O)c3ccccc3N3C(=O)C[C@H](C)C3=O)CC[C@H](OC)[C@]34C1[C@@](O)([C@@H](OC)[C@H]23)[C@@]1(O)C[C@H](OC)[C@H]2C[C@@H]4[C@@H]1[C@H]2OC | 95% | Active | inhibition [2]: Active; logIC50 [4]: -1.1; logIC50 [5]: -0.8
C=C1[C@@H]2CCC[C@@]1(COC(=O)c1ccccc1-c1ccccn1)CN(CC)C2 | 50% | Active | 
C=C1[C@@H]2CCC[C@@]1(COC(=O)c1ccccc1-c1cccc(NC(C)=O)n1)CN(CC)C2 | 80% | Active | inhibition [2]: Active; IC50 [4]: 4.9 µM; logIC50 [4]: 0.7; IC50 [5]: 27.3 µM; logIC50 [5]: 1.4
C=C1[C@@H]2CCC[C@@]1(COC(=O)c1ccccc1-c1cc(NC(C)=O)ccn1)CN(CC)C2 | 80% | Active | inhibition [2]: Active; IC50 [4]: 3.9 µM; logIC50 [4]: 0.6; IC50 [5]: 15 µM; logIC50 [5]: 1.2
C=C1[C@@H]2CCC[C@@]1(COC(=O)c1ccccc1N1C(=O)CC(C)C1=O)CN(CC)C2 (stereo partly specified) |  |  | IC50 [6]: 20.7 µM; IC50 [7]: 4.66 µM

Now from value to compound, other results behind:

inhibition [1] | Structure (SMILES) | inhibition [3] | other results
60% | C=C1[C@@H]2CCC[C@@]1(COC(=O)c1ccccc1-c1ccc(NC(C)=O)nc1)CN(CC)C2 | Active | 
Active | C=C1[C@@H]2CCC[C@@]1(COC(=O)c1ccccc1-c1cccc(NC(C)=O)c1)CN(CC)C2 |  | 
Active | C=C1[C@@H]2CCC[C@@]1(COC(=O)c1ccccc1-c1cccnc1)CN(CC)C2 |  | 
60% | C=C1[C@@H]2CCC[C@@]1(COC(=O)c1ccccc1-c1ccnc(NC(C)=O)c1)CN(CC)C2 | Active | 
60% | C=C1[C@@H]2CCC[C@@]1(COC(=O)c1ccccc1-c1cncc(NC(C)=O)c1)CN(CC)C2 | Active | 
Active | C=C1[C@@H]2CCC[C@@]1(COC(=O)c1ccccc1-c1ccc(NC(C)=O)cc1)CN(CC)C2 |  | 
